Measurements reported in ChEMBL document CHEMBL1201862, “PubChem BioAssay data set” (2004).
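Five concentrations, 48 hours, 96-well plates. Abbreviation: GI50, concentration required for 50% inhibition of growth.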 Calls of active or inactive are those of the source. Cut-off read from the data, not from the text of the source: active = GI50 up to about 1.1 µM and inactive = higher.

Assays:
Test in all cases: NCI tumour cell line growth inhibition, 48 h
SF-539 = test system: SF-539
A549 = test system: A549
HCT-116 = test system: HCT-116
OVCAR-3 = test system: OVCAR-3
K562 = test system: K562
A498 = test system: A498
ACHN = test system: ACHN
TK-10 = test system: TK-10
SF-268 = test system: SF-268
SN12C = test system: SN12C
SK-MEL-2 = test system: SK-MEL-2
HL-60 = test system: HL-60
SK-OV-3 = test system: SK-OV-3
RXF 393 = test system: RXF 393
SNB-75 = test system: SNB-75
M14 = test system: M14
HOP-92 = test system: HOP-92
SR = test system: SR

Measured: GI50

[C-]#[N+][C@@H]1C2[C@H](CC[C@@]1(C)O)C(=C)CC[C@@H]2[C@@]1(C)CC[C@H](Cl)C(C)(C)O1 (stereo not given in full)
inactive: SF-539 6.67 µM | A549 8.02 µM | HCT-116 2.23 µM | OVCAR-3 1.31 µM | K562 3.24 µM | A498 18.5 µM | ACHN 4.22 µM | TK-10 16.2 µM | SF-268 11 µM | SN12C 4.38 µM | SK-MEL-2 6.3 µM | HL-60 1.92 µM | SK-OV-3 25.4 µM | RXF 393 14 µM | SNB-75 7.87 µM | M14 2.81 µM

CCC12C=C(C(=O)OC)N3c4ccccc4C4CCN(CCC1)C2C43 (stereo not given)
inactive: SF-539 > 100 µM | A549 > 100 µM | HCT-116 68.7 µM | OVCAR-3 > 100 µM | K562 37.7 µM | A498 66.2 µM | ACHN 62.5 µM | TK-10 > 100 µM | SF-268 > 100 µM | SN12C 83.8 µM | HOP-92 34.8 µM | SK-MEL-2 > 100 µM | HL-60 78.9 µM | SK-OV-3 > 100 µM | RXF 393 53.2 µM | SNB-75 30.2 µM | M14 33.4 µM

CC1=N/C(=C\c2cccc3ccccc23)C(=O)O1
inactive: SF-539 > 100 µM | A549 > 100 µM | HCT-116 > 100 µM | K562 > 100 µM | A498 > 100 µM | ACHN > 100 µM | TK-10 > 100 µM | SF-268 > 100 µM | SN12C > 100 µM | HOP-92 > 100 µM | SK-MEL-2 > 100 µM | HL-60 > 100 µM | RXF 393 > 100 µM | M14 > 100 µM

COc1ccc(CNC(=O)NCn2cc(-c3ccccc3)nn2)cc1
inactive: SF-539 > 100 µM | A549 > 100 µM | HCT-116 > 100 µM | K562 > 100 µM | ACHN > 100 µM | TK-10 > 100 µM | SF-268 > 100 µM | SN12C > 100 µM | HOP-92 > 100 µM | SK-MEL-2 > 100 µM | HL-60 > 100 µM | SNB-75 > 100 µM | M14 > 100 µM | SR > 100 µM

Cc1nc2ccccn2c1/N=N/c1ccc(C(=O)NN)cc1
inactive: SF-539 77.3 µM | A549 24.9 µM | OVCAR-3 45 µM | K562 49.8 µM | A498 27.7 µM | ACHN 36 µM | TK-10 23 µM | SF-268 19.4 µM | SN12C 27.7 µM | HOP-92 46.5 µM | HL-60 9.31 µM | SK-OV-3 48 µM | RXF 393 9.82 µM | M14 > 100 µM

Nc1cc(N2CCCC2)nc(=O)n1-c1ccccc1
inactive: SF-539 > 100 µM | A549 > 100 µM | HCT-116 > 100 µM | K562 > 100 µM | ACHN > 100 µM | TK-10 > 100 µM | SN12C > 100 µM | HOP-92 > 100 µM | SK-MEL-2 > 100 µM | HL-60 > 100 µM | SNB-75 > 100 µM | M14 > 100 µM | SR > 100 µM

CC1CC(=O)Nc2ccccc2N1C(=O)CN1CCC(CCCCN(C)C)CC1 (stereo not given)
inactive: SF-539 > 100 µM | A549 > 100 µM | HCT-116 > 100 µM | OVCAR-3 > 100 µM | K562 > 100 µM | A498 > 100 µM | ACHN > 100 µM | TK-10 > 100 µM | SF-268 > 100 µM | SN12C > 100 µM | SK-MEL-2 > 100 µM | HL-60 > 100 µM | RXF 393 > 100 µM | SNB-75 > 100 µM | M14 > 100 µM | SR > 100 µM

Cc1ccc(S(=O)(=O)N/N=C2\C(=O)C3CC2C(Cl)C3Cl)cc1 (stereo not given)
inactive: A549 > 100 µM | HCT-116 > 100 µM | OVCAR-3 > 100 µM | K562 > 100 µM | A498 > 100 µM | ACHN > 100 µM | TK-10 > 100 µM | SF-268 > 100 µM | SN12C > 100 µM | HOP-92 70.8 µM | HL-60 > 100 µM | SK-OV-3 > 100 µM | SNB-75 55 µM | M14 > 100 µM | SR > 100 µM

CN(C)C(=N)c1ccccc1
inactive: SF-539 > 100 µM | A549 > 100 µM | HCT-116 > 100 µM | OVCAR-3 > 100 µM | TK-10 > 100 µM | SN12C > 100 µM | HOP-92 > 100 µM | SK-MEL-2 > 100 µM | HL-60 > 100 µM | RXF 393 > 100 µM | SNB-75 > 100 µM | M14 > 100 µM | SR > 100 µM

NC(=O)C(=O)Cc1nc2ccccc2s1
inactive: SF-539 > 100 µM | A549 > 100 µM | HCT-116 > 100 µM | OVCAR-3 > 100 µM | K562 > 100 µM | A498 > 100 µM | ACHN > 100 µM | TK-10 > 100 µM | SF-268 > 100 µM | SN12C > 100 µM | HOP-92 > 100 µM | SK-MEL-2 > 100 µM | HL-60 > 100 µM | SK-OV-3 > 100 µM | RXF 393 > 100 µM | SNB-75 68.2 µM | M14 > 100 µM

N#CC(C#N)=c1ccc(=C2N3CCCC3CN2C23CC4CC(CC(C4)C2)C3)cc1 (stereo not given)
inactive: SF-539 > 100 µM | A549 > 100 µM | HCT-116 > 100 µM | OVCAR-3 > 100 µM | K562 > 100 µM | ACHN > 100 µM | TK-10 76.4 µM | SF-268 55.8 µM | SN12C > 100 µM | HOP-92 > 100 µM | SK-MEL-2 > 100 µM | HL-60 > 100 µM | SK-OV-3 > 100 µM | RXF 393 > 100 µM | SNB-75 26.4 µM | M14 > 100 µM | SR > 100 µM

CCc1ccccc1N1C(=O)C(=O)C(c2nc3ccccc3s2)C(=O)C1=O
inactive: SF-539 > 100 µM | A549 > 100 µM | HCT-116 48.3 µM | OVCAR-3 80.4 µM | K562 44.3 µM | ACHN > 100 µM | TK-10 > 100 µM | SF-268 > 100 µM | SN12C 63.4 µM | HOP-92 > 100 µM | SK-MEL-2 > 100 µM | HL-60 40.3 µM | SK-OV-3 > 100 µM | RXF 393 > 100 µM | M14 59 µM | SR 55 µM

O=C(CC1Sc2ccccc2NC1=O)Nc1ccc([N+](=O)[O-])cc1[N+](=O)[O-] (stereo not given)
inactive: A549 26.5 µM | HCT-116 16 µM | OVCAR-3 16.3 µM | ACHN 15.3 µM | TK-10 41.3 µM | SF-268 16.6 µM | SN12C 16.1 µM | HOP-92 11 µM | SK-MEL-2 19.5 µM | HL-60 17.8 µM | RXF 393 12.9 µM | SNB-75 20 µM | M14 16 µM
